Measured values published in US11717508B2, “Compounds, compositions, and methods for inhibiting bacterial growth” (priority 2016, dated 2023).

System: DosRST regulon
Format: cell-based
[1] = Rv0569, WT Mtb treated with HC102A compared to DMSO
[2] = Rv0570 nrdZ, WT Mtb treated with HC102A compared to DMSO
[3] = Rv0571c, WT Mtb treated with HC102A compared to DMSO
[4] = Rv0572c, WT Mtb treated with HC102A compared to DMSO
[5] = Rv0573c, WT Mtb treated with HC102A compared to DMSO
[6] = Rv0574c, WT Mtb treated with HC102A compared to DMSO
[7] = Rv1733c, WT Mtb treated with HC102A compared to DMSO
[8] = Rv1735c, WT Mtb treated with HC102A compared to DMSO
[9] = Rv1736c narX, WT Mtb treated with HC102A compared to DMSO
[10] = Rv1737c narK2, WT Mtb treated with HC102A compared to DMSO
[11] = Rv1738, WT Mtb treated with HC102A compared to DMSO
[12] = Rv1790 PPE, WT Mtb treated with HC102A compared to DMSO
[13] = Rv1812c, WT Mtb treated with HC102A compared to DMSO
[14] = Rv1813c, WT Mtb treated with HC102A compared to DMSO

C[C@@H]1CC(C)(C)C[C@]2(C1)NC(=O)NC2=O (racemic) [HC102A, 7,7,9-trimethyl-1,3-diazaspiro[4.5]decane-2,4-dione]
genes downregulated by compound (total) (40 μM, 6 days, >2-fold, p<0.05): 55 genes | downregulation of tgs1 gene (transcriptional profiling) (CDC1551, 40 μM, 6 days): ~20 fold | Fold change, gene MT0595 [1]: 0.1089 | log2 Fold change, gene MT0595 [1]: −3.199 | Counts per million (CPM) WT_HC102A1, gene MT0595 (Rv0569, WT Mtb treated with HC102A, replicate 1): 21.38 CPM | Counts per million (CPM) WT_HC102A2, gene MT0595 (Rv0569, WT Mtb treated with HC102A, replicate 2): 25.92 CPM | Fold change, gene MT0596 [2]: 0.04533 | log2 Fold change, gene MT0596 [2]: −4.464 | Counts per million (CPM) WT_HC102A1, gene MT0596 (Rv0570 nrdZ, WT Mtb treated with HC102A, replicate 1): 102.7 CPM | Counts per million (CPM) WT_HC102A2, gene MT0596 (Rv0570 nrdZ, WT Mtb treated with HC102A, replicate 2): 94.1 CPM | Fold change, gene MT0597 [3]: 0.2805 | log2 Fold change, gene MT0597 [3]: −1.834 | Counts per million (CPM) WT_HC102A1, gene MT0597 (Rv0571c, WT Mtb treated with HC102A, replicate 1): 94.1998 CPM | Counts per million (CPM) WT_HC102A2, gene MT0597 (Rv0571c, WT Mtb treated with HC102A, replicate 2): 81.32 CPM | Fold change, gene MT0599 [4]: 0.2441 | log2 Fold change, gene MT0599 [4]: −2.034 | Counts per million (CPM) WT_HC102A1, gene MT0599 (Rv0572c, WT Mtb treated with HC102A, replicate 1): 127.4 CPM | Counts per million (CPM) WT_HC102A2, gene MT0599 (Rv0572c, WT Mtb treated with HC102A, replicate 2): 180.6 CPM | Fold change, gene MT0601 [5]: 0.1932 | log2 Fold change, gene MT0601 [5]: −2.372 | Counts per million (CPM) WT_HC102A1, gene MT0601 (Rv0573c, WT Mtb treated with HC102A, replicate 1): 13.82 CPM | Counts per million (CPM) WT_HC102A2, gene MT0601 (Rv0573c, WT Mtb treated with HC102A, replicate 2): 19.29 CPM | Fold change, gene MT0602 [6]: 0.1416 | log2 Fold change, gene MT0602 [6]: −2.82 | Counts per million (CPM) WT_HC102A1, gene MT0602 (Rv0574c, WT Mtb treated with HC102A, replicate 1): 45.11 CPM | Counts per million (CPM) WT_HC102A2, gene MT0602 (Rv0574c, WT Mtb treated with HC102A, replicate 2): 51.54 CPM | Fold change, gene MT1774 [7]: 0.07551 | log2 Fold change, gene MT1774 [7]: −3.727 | Counts per million (CPM) WT_HC102A1, gene MT1774 (Rv1733c, WT Mtb treated with HC102A, replicate 1): 109.6 CPM | Counts per million (CPM) WT_HC102A2, gene MT1774 (Rv1733c, WT Mtb treated with HC102A, replicate 2): 116 CPM | Fold change, gene MT1776 [8]: 0.2742 | log2 Fold change, gene MT1776 [8]: −1.867 | Counts per million (CPM) WT_HC102A1, gene MT1776 (Rv1735c, WT Mtb treated with HC102A, replicate 1): 5.202 CPM | Counts per million (CPM) WT_HC102A2, gene MT1776 (Rv1735c, WT Mtb treated with HC102A, replicate 2): 4.163 CPM | Fold change, gene MT1778 [9]: 0.05545 | log2 Fold change, gene MT1778 [9]: −4.173 | Counts per million (CPM) WT_HC102A1, gene MT1778 (Rv1736c narX, WT Mtb treated with HC102A, replicate 1): 234.5 CPM | Counts per million (CPM) WT_HC102A2, gene MT1778 (Rv1736c narX, WT Mtb treated with HC102A, replicate 2): 246.1 CPM | Fold change, gene MT1779 [10]: 0.04997 | log2 Fold change, gene MT1779 [10]: −4.323 | Counts per million (CPM) WT_HC102A1, gene MT1779 (Rv1737c narK2, WT Mtb treated with HC102A, replicate 1): 72.42 CPM | Counts per million (CPM) WT_HC102A2, gene MT1779 (Rv1737c narK2, WT Mtb treated with HC102A, replicate 2): 91.94 CPM | Fold change, gene MT1780 [11]: 0.1174 | log2 Fold change, gene MT1780 [11]: −3.091 | Counts per million (CPM) WT_HC102A1, gene MT1780 (Rv1738, WT Mtb treated with HC102A, replicate 1): 337.8 CPM | Counts per million (CPM) WT_HC102A2, gene MT1780 (Rv1738, WT Mtb treated with HC102A, replicate 2): 628.9 CPM | Fold change, gene MT1839 [12]: 0.466 | log2 Fold change, gene MT1839 [12]: −1.102 | Counts per million (CPM) WT_HC102A1, gene MT1839 (Rv1790 PPE, WT Mtb treated with HC102A, replicate 1): 29.83 CPM | Counts per million (CPM) WT_HC102A2, gene MT1839 (Rv1790 PPE, WT Mtb treated with HC102A, replicate 2): 18.94 CPM | Fold change, gene MT1860 [13]: 0.3171 | log2 Fold change, gene MT1860 [13]: −1.657 | Counts per million (CPM) WT_HC102A1, gene MT1860 (Rv1812c, WT Mtb treated with HC102A, replicate 1): 54.94 CPM | Counts per million (CPM) WT_HC102A2, gene MT1860 (Rv1812c, WT Mtb treated with HC102A, replicate 2): 65.84 CPM | Fold change, gene MT1861 [14]: 0.06232 | log2 Fold change, gene MT1861 [14]: −4.004 | Counts per million (CPM) WT_HC102A1, gene MT1861 (Rv1813c, WT Mtb treated with HC102A, replicate 1): 121.3 CPM
